From ChEMBL document CHEMBL3507680, “University of Dundee, Gates Library screen for HepG2 cell viability”

Assay: Human HepG2 cell viability assay in 384 well format
Assay type: toxicity, cell-based
Set-up: dose 125 nL, time 70.5 hour; concentration not given beside the values
Conditions: HepG2 cells, read-out: Inhibition

SMILES | cytotoxicity at 70.5 h
CCC(=O)N1CCc2onc(CNS(C)(=O)=O)c2C1 | 9.89%
CCn1c2c(ccc1=O)CC(NCc1cnn(C)c1)CC2 (stereo not given) | -4.95%
CS(=O)(=O)NCc1noc2c1CN(C(=O)C1CC1)CC2 | -7.86%
CN1CCN(Cc2cn3c(n2)CN(Cc2ccccn2)CC3)CC1 | -9.35%
CCOCC1c2c(ncn2C)CCN1C(=O)c1ccoc1 (stereo not given) | -17.6%
COC[C@@H]1CCC[C@@]12CN(C(=O)C1CCOCC1)CCO2 | -7.08%
CCC(=O)N1CCC2(CC1)CC(CC(=O)N(C)C)c1ccc(F)cc12 (stereo not given) | -1.89%
CN1CCC2(CC1)CN(C(=O)c1cccnc1)c1ccc(Cl)cc12 | -10.6%
CS(=O)(=O)N1CCC2(CC1)CC(NCc1ccccn1)c1ccccc12 (stereo not given) | -9.6%
CCOCc1cnc2n1CCN(C(=O)c1cccc3c1OCCO3)C2C (stereo not given) | -5.93%
CC(C)N1Cc2c(C(=O)N3CCN(C)CC3)nn(C)c2C1 | -0.433%
COCC(=O)NCc1cc(=O)n2c(n1)CN(Cc1cccs1)CCC2 | -6.99%
O=C(COc1ccc(F)cc1)N1CCO[C@H]2[C@@H](OCC3CC3)CC[C@@H]21 | -6.33%
CO[C@@H]1CC[C@H]2[C@H]1OCCN2C(=O)COc1ccc(C)cc1 | -4.98%
CCC1=N[C@@]2(CC[C@@H]3CN(CC)C[C@@H]32)C(=O)N1C | 7.11%
O=C(c1ncccn1)N1C[C@@H]2COC[C@]2(COc2cccnc2)C1 | -4.57%
CO[C@H]1CC[C@H]2[C@H]1OCCN2C(=O)CCOc1ccccc1 | -2.84%
CCN1CC[C@@H]2OC[C@H](C(=O)NCc3cccs3)C[C@@H]2C1 | 45.7%
CN(C)C(=O)CN1CCC2(COCc3cnc(-c4ccccc4)nc32)C1 (stereo not given) | -6.03%
Cn1ccc(-c2cc(C(=O)N3CCCCC3)c3ccccn23)n1 | 4.75%
O=C(N[C@@H]1CN(Cc2ccco2)[C@@H]2CCCO[C@@H]21)c1cscn1 | -5.42%
O=C(C1CCC1)N1CC[C@@H]2CN(Cc3cccnc3)S(=O)(=O)[C@@H]2CC1 | -4.67%
COCC(=O)N1CC[C@@H]2CN(Cc3cccnc3)S(=O)(=O)[C@@H]2CC1 | -2.46%
CS(=O)(=O)NC[C@]12COC[C@H]1CN(C(=O)N1CCCC1)C2 | -4.24%
O=C(c1ccccc1)N1CC[C@H]2C[C@@H](c3nnc(C4CC4)o3)O[C@@H]2C1 | -4.88%

SMILES | cytotoxicity at 70.5 h
CS(=O)(=O)NC[C@]12COC[C@H]1CN(C(=O)CC1CCCC1)C2 | -13.4%
Cc1ccoc1C(=O)N1CC[C@H]2C[C@H](c3nnc(C4CC4)o3)O[C@@H]2C1 | -11.4%
Cc1cccc(CO[C@@H]2CC[C@H]3[C@H]2OCCN3Cc2ccoc2)n1 | -11.3%
O=C(c1ccoc1)N1CC[C@H]2C[C@@H](c3nnc(C4CC4)o3)O[C@@H]2C1 | -12%
O=C(c1ccccc1)N1CC[C@H]2C[C@H](c3nnc(C4CC4)o3)O[C@@H]2C1 | -9.97%
CN(CCO)C[C@@H]1CN(C(=O)Cc2ccc3ccccc3c2)C[C@@H]1CO | -4.17%
COCc1nc(CNC2CCCC(C)(C)C2)no1 (stereo not given) | -9.03%
CC1(C)C(C(=O)NCCC2CN(Cc3c[nH]cn3)CCO2)C1(C)C (stereo not given) | -13.9%
Cc1ccc(Sc2ccc(CN3CCC4(CCCNC4=O)C3)o2)cc1 (stereo not given) | 5.69%
Cc1nnc(SCCCNC(=O)Nc2ccc3c(c2)OCO3)s1 | 11.4%
CCC(=O)N1CCCC(c2nc(-c3cccnn3)no2)C1 (stereo not given) | -0.455%
Cc1cc(CN2C[C@H]3CC[C@@H]2CN(Cc2c(C)noc2C)C3)ccc1F | -5.96%
Cc1cnc(CNC(=O)CC2CCc3ccccc32)cn1 (stereo not given) | -13.9%
CSCCC(O)C(=O)N1CCC(OCc2cccnc2)CC1 (stereo not given) | 16.3%
Cc1nn(CC(=O)O)c(C)c1NS(=O)(=O)c1cc2ccccc2s1 | 24.3%
FC(F)(F)CCc1ccnc(N[C@H]2CC[C@H](n3cnnc3)CC2)n1 | -9.96%
O=C(NCCN1CCCC(CO)C1)c1ccc2sccc2c1 (stereo not given) | -6.22%
c1ccc(COC[C@H]2CCC[C@@]23CNCCO3)nc1 | 15.4%
c1ccc(COC[C@@H]2CCC[C@@]23CNCCO3)nc1 | 14.4%
COC[C@@]12CCC[C@@H]1CN(C(=O)Cc1ccccn1)C2 | 9.13%
CCOC1COC2(CCN(CC3CCOCC3)CC2)C1 (stereo not given) | 14.7%
CO[C@H]1CN(CC2CCOCC2)[C@@H]2CCCO[C@H]12 | -7.16%
CS(=O)(=O)N1CCC2(CC1)CC(NCC1CC1)c1ccccc12 (stereo not given) | -7.3%
O=S(=O)(C1CC1)N1CCc2ncnc(N3CCCC3)c2CC1 | -14.9%
COC1COC2(CCN(CC3CC3)CC2)C1 (stereo not given) | -12.5%

SMILES | cytotoxicity at 70.5 h
Cn1cc(CNC2CC3(CCN(S(C)(=O)=O)CC3)c3ccccc32)cn1 (stereo not given) | -11.7%
CC(=O)N1CCC2(CC1)CN(C(=O)c1cccnc1)c1ccc(F)cc12 | -3.83%
CCO[C@H]1CN(CC2CCOCC2)[C@@H]2CCCO[C@H]12 | 9.78%
O=C(N1CCCC1)N1C[C@H]2CCC[C@@]2(COCc2ccccn2)C1 | -10.8%
Cc1cccc(CN2C[C@@H]3COC[C@]3(CNC(=O)C3CC3)C2)c1 | -9.63%
NC(=O)N1CCC2(CCN(C(=O)c3cccnc3)CC2)C1 | 0.925%
Cc1ccc(CN2CCC3(CC2)CCN(C(=O)c2cccnc2)C3)o1 | -5.87%
COCCN1CCCn2c(nc(CNC(=O)COC)cc2=O)C1 | -2.45%
CCC(C)N1Cc2c(C(=O)N3CCOCC3)nn(C)c2C1 (stereo not given) | -6.15%
COCC(=O)NCc1cc(=O)n2c(n1)CN(Cc1ccccc1)CCC2 | 2.31%
O=C(C1CCC1)N1CC[C@H](O)[C@@H]1Cc1cccnc1 | 1.53%
O=C(C1=CCCC1)N1C[C@@H]2COC[C@]2(COc2ncccc2F)C1 | 6.81%
CCO[C@@H]1CC[C@H]2[C@H]1OCCN2Cc1ccoc1 | -1.39%
CN1CCO[C@@H]2CN(C(=O)Cc3cccs3)CC[C@@H]2C1 | -2.05%
CN(C)C1CCN(C(=O)c2cc(-c3ccn(C)n3)n3ccccc23)CC1 | -6.13%
CC(C)CN1CCC2(COCc3cnc(-c4ccccc4)nc32)C1 (stereo not given) | -3.09%
Cn1cc(CNC2CCc3c(ccc(=O)n3Cc3cccnc3)C2)cn1 (stereo not given) | -14.4%
COCC1CC2(CCN(c3ccccn3)CC2)CN1C(C)C (stereo not given) | -11.6%
c1ccc(CO[C@@H]2CN(Cc3nccs3)[C@@H]3COC[C@@H]32)nc1 | -7.21%
c1cncc(CO[C@H]2CN(Cc3ccco3)[C@@H]3COC[C@H]23)c1 | -3.78%
CN(Cc1cccnc1)[C@@H]1CN(C(=O)c2ccno2)[C@@H]2CCCO[C@H]12 | -5.28%
COCCN1CCc2c(c(COc3cccnc3)nn2C)C1 | -8.79%
CN1CCN(Cc2cn3c(n2)CN(Cc2ccc(F)cc2)CC3)CC1 | -9.1%
CN1CCN(Cc2cn3c(n2)CN(Cc2cccc(F)c2)CC3)CC1 | -11.9%
FC1(F)CCN(Cc2ccccn2)CC12CCN(c1cnccn1)C2 (stereo not given) | -5.08%
